Assay results taken from patent US9090874B2, “Olfactory epithelial-derived stem cells and methods of use therefor” (University of Louisville Research Foundation, Inc., priority 2008, dated 2015).

Tested on: neurosphere subcultures
Test: Exposure of neurosphere subcultures to dibutyryl cAMP
Format: cell-based
Conditions: media containing 2.5 mM dibutyryl cAMP

## CCCC(=O)Nc1ncnc2c1ncn2[C@@H]1O[C@@H]2COP(=O)(O)O[C@H]2[C@H]1OC(=O)CCC [dibutyryl cAMP]
  levels of α-internexin: increases
  mitotic activity: drastically decreases
